Experimental data taken from patent publication US20100063020A1, “ORAL PHARMACEUTICAL FORMULATIONS AND METHODS FOR PRODUCING AND USING SAME” (priority 2004, published 2010).
Values after ≈ are worked out from the molar mass of the structure shown. Values joined by “and” are separate entries in the source; they are usually repeats but may differ in a detail not shown here. Identical values can stand only once. Like-named read-outs stand apart in the source and are kept apart here.

Columns and labels:
Caco-2 cell monolayer = test: in vitro; type: in vitro ADME
Excerpt: The permeability of the pharmaceutical active ingredient across the gastrointestinal membrane may be estimated from it permeability across a Caco-2 cell monolayer using standard techniques (e.g. Chong S et al. Pharmaceutical Research 1997 14(12):1835-1837). The reference is hereby expressly incorporated by reference.
Propranolol was included in each assay as a high permeability control compound.

[1] = Solubility of 17-AAG in organic solvents suitable for oral administration; type: physicochemical
Excerpt: In other embodiments, pharmaceutical acceptable co-solvents may be added to the phospholipid formulation to further enhance the solubility of the ansamycins. Many suitable co-solvents which are known in the art may be used. […] The resulted formulation can then be combined with any combinations of the general excipients: fillers, glidants, lubricants, disintegrants, binders, solubilizers to form the various oral compositions.

[2] = Solubility assay in simulated intestinal fluid (SIF); type: physicochemical; conditions: low melt form; simulated intestinal fluid per USP w/o pancreatin, 24 hours at 37° C.
Procedure: The solubility of an active ingredient may be assayed by its dissolution in a simulated intestinal fluid (SIF) (per USP w/o pancreatin). Conforma Therapeutics has developed a database of SIF solubility data using this assay for a structurally diverse set of compounds that have also been administered orally to mice.
The mixture was incubated with continuous shaking for a predetermined time and temperature, e.g., for 24 hours at 37° C. […] The solubility of the active ingredient is calculated as the difference between the initial and final concentration of the active ingredient in the supernatant normalized to the total volume of SIF used.
The tube was then sonicated for 5 minutes then incubated for 24 hours at 37° C. with shaking. […] Conforma Therapeutics has developed a database of SIF solubility data using this assay for a structurally diverse set of compounds that have also been administered orally to mice.

[3] = Oral bioavailability of prototype 17-AAG solid dosage form (capsule) in female rats; type: in vivo, Sprague-Dawley rats; conditions: rat; for 17-AAG AUC(0-6)^b: oral capsule (17-AAG 33%, Neusilin 64%, SLS 3%), AUC estimated from 0 to 8 hrs; for 17-AAG Cmax / 17-AG Cmax / Apparent Absolute Bioavailability: oral capsule; for 17-AG Cmax: metabolite 17-AG; for Apparent Absolute Bioavailability: vs intravenous 10 mg/kg of earlier study
Procedure: See, Example 18. […] The average dose administered was 14.3 mg/kg.
The average dose administered was 14.3 mg/kg. Blood samples (n=11) were collected via the jugular vein catheter prior to dosing and up to 8 hrs post dosing. The blood was allowed to clot at room temperature for approximately 20 minutes and then placed on ice until centrifugation at 10,000×G for 10 minutes. Serum was collected into polypropylene tubes and frozen at −80° C. until analysis.
% F=[(Oral AUC(0-6h)×I.V. Dose)/(I.V. AUC(0-6h)×Oral Dose)]*100

[4] = adult patients, cited from earlier work; for Cmax: read-out: Plasma Cmax
[5] = Mouse serum pharmacokinetics of low melt 17-AAG in PEG-Tween; type: in vivo; conditions: Balb/C mice, PO 40 mg/kg
Procedure: Six to 8 week old Balb/C mice were obtained from Harlan Sprague Dawley, (Indianapolis, Ind.). The mice were maintained in sterilized filter topped cages or ventilated caging in a room with a 12-h light/12-h dark photoperiod at temperature of 21-23° C. and a relative humidity of 50±5%. Irradiated pelleted food (Harlan Teklad #7912) and autoclaved deionized water were provided ad libitum. Experiments were carried out under institutional guidelines for the proper and humane use of animals in research established by the Institute for Laboratory Animal Research (ILAR).
Drug solutions were prepared and the concentrations were adjusted so that mice received a dose of 2-15 ml/kg administered intravenously (I.V.) as a bolus, orally, or intra-peritoneally (I.P.). In I.V. studies blood was sampled at 1, 5, 15, 30, 90 and 120 min. In oral and I.P. studies blood was sampled at 5, 15, 30, 90, 180 minutes and in some cases up to 240 minutes. Blood was collected in capillary tubes, transferred to microcentrifuge tubes, allowed to clot and centrifuged at 14,000 g for 10 minutes at 4° C. to obtain serum.

[6] = aqueous reconstituted lyophilized preparation containing sucrose; cited from earlier work
[7] = Absolute oral bioavailability of 17-AAG lipid complex formulation in female rats; type: in vivo, Sprague-Dawley rats; conditions: rat; for Apparent Absolute Bioavailability: oral 50 mg/kg vs intravenous 10 mg/kg
Procedure: Female Sprague-Dawley rats were administered a phospholipid complex formulation of the low melt form of 17-AAG by oral gavage or as intravenous infusion (tail vein). Blood samples were collected prior to dosing and up to 6 hrs post dosing.
% F=[(Oral AUC(0-6h)×I.V. Dose)/(I.V. AUC(0-6h)×Oral Dose)]*100.
Blood samples (n=11) were collected via the jugular vein catheter prior to dosing and up to 6 hrs post dosing. The blood was allowed to clot at room temperature for approximately 20 minutes and then placed on ice until centrifugation at 10,000×G for 10 minutes. Serum was collected into polypropylene tubes and frozen at −80° C. until analysis.

[8] = Effect of sodium lauryl sulfate on aqueous solubility of 17-AAG; type: physicochemical; conditions: pH 6.0, sodium lauryl sulfate
Excerpt: Formulations of the invention may contain as much as 50% SLS.

[9] = 13.6-15.1 mg/kg, individual animal
[10] = intravenous 10 mg/kg, individual animal, 10 mg/kg
[11] = intravenous 10 mg/kg, metabolite 17-AG, individual animal, 10 mg/kg
[12] = intravenous 10 mg/kg, metabolite 17-AG, mean n=3
[13] = oral 50 mg/kg, individual animal, 50 mg/kg
[14] = oral 50 mg/kg, metabolite 17-AG, individual animal, 50 mg/kg

C=CCNC1=C2C[C@@H](C)C[C@H](OC)[C@H](O)[C@@H](C)/C=C(\C)[C@H](OC(N)=O)[C@@H](OC)/C=C\C=C(/C)C(=O)NC(=CC1=O)C2=O [Compound 17-AAG, 17-allylamino-17-demethoxygeldanamycin]
permeability across the Caco-2 monolayer (Caco-2 cell monolayer): 190 nm/s
Solubility ([1]; solvent Glycerol): 1.1 mg/mL
Solubility ([1]; solvent Glycofurol): 47.0 mg/mL
Solubility ([1]; solvent Labrafil (Apricot Kernol Oil PEG-6 Esters)): 2.4 mg/mL
Solubility ([1]; solvent Labrasol (PEG-8 Caprylic/Capric Glycerides)): 16.1 mg/mL
Solubility ([1]; solvent Polyethylene glycol 400): 12.9 mg/mL
Solubility ([1]; solvent Propylene Carbonate): 12.8 mg/mL
Solubility ([1]; solvent Solutol HS15): 12.4 mg/mL
Solubility ([1]; solvent Transcutol HP (Ethoxydiglycol)): 57.7 mg/mL
Solubility ([1]; solvent Tween 80): 33.8 mg/mL
solubility in SIF [2]: 0.088 mg/mL (≈ 150 µM)
17-AAG AUC(0-6)^b [3, 9]: 32 µg·min/mL and 19 µg·min/mL and 34 µg·min/mL
17-AAG AUC(0-6)^b ([3]; mean dose 14.3 mg/kg, mean n=3): 28 µg·min/mL
17-AAG Cmax [3, 9]: 0.158 µg/mL and 0.117 µg/mL and 0.141 µg/mL
17-AG Cmax [3, 9]: 0.070 µg/mL and 0.061 µg/mL and 0.052 µg/mL
Apparent Absolute Bioavailability [3, 9]: 15% and 8% and 16%
17-AAG Cmax ([3]; mean dose 14.3 mg/kg, mean n=3): 0.139 ± 0.021 µg/mL
17-AG Cmax ([3]; mean dose 14.3 mg/kg, mean n=3): 0.061 ± 0.009 µg/mL
Apparent Absolute Bioavailability ([3]; mean dose 14.3 mg/kg, mean n=3): 13±4%
maximum tolerated dose (MTD) ([4]; daily 1-hour infusion for 5 days every three weeks): 40 mg/m^2
clearance ([4]; mean±SD): 41.0 ± 13.5 L/h
terminal half-life ([4]; mean±SD): 2.5 ± 0.5 h
Cmax ([4]; 40 mg/m^2): 1.86 ± 0.66 µM
Cmax ([4]; 56 mg/m^2): 3.17 ± 1.31 µM
17-AAG AUCobs ([5]; low melt form): 433 µg·min/mL
17-AAG Cmax ([5]; low melt form): 5.0 µg/mL
17-AG AUCobs ([5]; metabolite 17-AG): 163 µg·min/mL
17-AG Cmax ([5]; metabolite 17-AG): 2.4 µg/mL
% F ([5]; relative to IV 40 mg/kg): 25%
oral bioavailability [6]: 24%
17-AAG AUC(0-6) [7, 10]: 172 µg·min/mL and 161 µg·min/mL and 135 µg·min/mL
17-AAG Cmax [7, 10]: 8.7 µg/mL and 8.0 µg/mL and 7.0 µg/mL
17-AAG AUC(0-6) ([7]; intravenous 10 mg/kg, mean n=3): 156 µg·min/mL
17-AAG Cmax ([7]; intravenous 10 mg/kg, mean n=3): 7.9 µg/mL
17-AG AUC(0-6) [7, 11]: 17 µg·min/mL and 25 µg·min/mL and 37 µg·min/mL
17-AG Cmax [7, 11]: 0.3 µg/mL and 0.2 µg/mL
17-AG AUC(0-6) [7, 12]: 26 µg·min/mL
17-AG Cmax [7, 12]: 0.2 µg/mL
Apparent Absolute Bioavailability ([7]; individual animal): 160% and 129% and 39%
Apparent Absolute Bioavailability ([7]; mean n=3): 109±63%
17-AAG mean serum concentration six hours post oral dosing ([7]; oral 50 mg/kg, 6 h): 1.6 ± 0.8 µg/mL
17-AG mean serum concentration six hours post oral dosing ([7]; oral 50 mg/kg, 6 h, metabolite 17-AG): 0.6 ± 0.1 µg/mL
17-AAG AUC(0-6) [7, 13]: 1248 µg·min/mL and 1003 µg·min/mL and 305 µg·min/mL
17-AAG Cmax [7, 13]: 5.7 µg/mL and 4.7 µg/mL and 1.2 µg/mL
17-AAG AUC(0-6) ([7]; oral 50 mg/kg, mean n=3): 852 µg·min/mL
17-AAG Cmax ([7]; oral 50 mg/kg, mean n=3): 3.9 ± 2.4 µg/mL
17-AG AUC(0-6) [7, 14]: 252 µg·min/mL and 238 µg·min/mL and 156 µg·min/mL
17-AG Cmax [7, 14]: 1.2 µg/mL and 0.9 µg/mL
17-AG AUC(0-6) ([7]; oral 50 mg/kg, metabolite 17-AG, mean n=3): 215 µg·min/mL
17-AG Cmax ([7]; oral 50 mg/kg, metabolite 17-AG, mean n=3, 50 mg/kg): 1.0 µg/mL
aqueous solubility versus SLS concentration [8]: increases linearly with increasing concentration of SLS
